Experimental data taken from US10676504B2 (Colorado State University Research Foundation, priority 2015, dated 2020).
Where two headings read alike, the source gives them in different places.

What was measured:
[1] = test system: melanoma cell lines; assay: cells; settings: read-out: Average Concentration (M), LC50, Melanoma
From the text: (§1) All compounds submitted for screening were initially tested at a single high dose (10^-5 M) against the fill NCI 60 cell panel. Only compounds which satisfied pre-determined threshold inhibition criteria in a minimum number of cell lines progressed to a second round of testing utilizing a more comprehensive 5-dose inhibition assay. The threshold inhibition criteria for progression to the 5-dose assays were selected to efficiently capture compounds with anti-proliferative activity based on historical DTP screening data.
(§2) Concentrations for G150, IC50, TGI, and LC50 were calculated for all cell lines tested, and heat plots were prepared.

[2] = test system: CNS cancer cell lines; assay: NCI 60 one-dose screen; type: cell-based; settings: of the 6 CNS
[3] = test system: non-small cell lung cancer cell lines; assay: NCI 60 one-dose screen; type: cell-based; settings: of the 9 cell lines
[4] = test system: ovarian cancer cell lines; assay: cells; settings: read-out: Average Concentration (M), LC50, Ovarian
From the text: as §1, §2

[5] = test system: ovarian cancer cell lines
From the text: as §1, §2

[6] = test system: renal cancer cell lines; assay: NCI 60 one-dose screen; type: cell-based; settings: of the 6 renal
[7] = test system: renal cancer cell lines
From the text: as §1, §2

[8] = test system: CNS cancer cell lines; assay: cells; settings: read-out: Average Concentration (M), LC50, CNS
From the text: as §1, §2

[9] = test system: NCI-60 cancer cell lines; settings: five-dose
[10] = test system: melanoma cell lines; assay: NCI 60 one-dose screen; type: cell-based
[11] = test system: melanoma cell lines
From the text: as §1, §2

[12] = test system: CNS cancer cell lines
From the text: as §1, §2

[13] = test system: renal cancer cell lines; assay: cells; settings: read-out: Average Concentration (M), LC50, Renal
From the text: as §1, §2

[14] = test system: NCI 60 cell panel; type: cell-based; settings: one-dose
From the text: A) Eight compounds were submitted to the National Cancer Institute (NCI) 60 tumor cell line drug discovery program (DTP) for anticancer screening.
as §1

[15] = test system: colon cancer cell lines
From the text: as §1, §2

[16] = test system: colon cancer cell lines; assay: cells; settings: read-out: Average Concentration (M), LC50, Colon
From the text: as §1, §2

[17] = test system: colon cancer cell lines; assay: NCI 60 one-dose screen; type: cell-based; settings: of the 7 colon
[18] = test system: NCI-60 cancer cell lines; assay: cells
[19] = test system: breast cancer cells lines; assay: NCI 60 one-dose screen; type: cell-based; settings: of the 6 breast
[20] = test system: ovarian cancer cell lines; assay: NCI 60 one-dose screen; type: cell-based; settings: of the 7 ovarian

SMILES: CCCCCCCC(=O)SCC/C=C/[C@@H]1CC(=O)NCc2nc(co2)C2=N[C@@](C)(CS2)C(=O)N[C@@H](C(C)C)C(=O)O1 [compound of formula D]
- CC50 [1]: 3.72e-07 M
- cell lines with some level of lethality [2]: 2
- cell lines with some level of lethality [3]: 7
- CC50 [4]: 2.34e-06 M
- Total Impacted Cell Lines (n), LC50, Ovarian [5]: 1
- Percent of Cell Lines Impacted (%), LC50, Ovarian ([5]; five-dose): 14%
- cell lines with some level of lethality [6]: 4
- Total Impacted Cell Lines (n), LC50, Renal [7]: 2
- Percent of Cell Lines Impacted (%), LC50, Renal ([7]; five-dose): 25%
- CC50 [8]: 1.95e-05 M
- Percent of Cell Lines Impacted (%), GI50 ([9]; 50% Growth Inhibition): 100%
- Percent of Cell Lines Impacted (%), LC50 ([9]; 50% Lethal Concentration reached): 16%
- Percent of Cell Lines Impacted (%), TGI ([9]; Total Growth Inhibition): 67%
- Total Impacted Cell Lines (n), TGI ([9]; Total Growth Inhibition): 38
- Average Concentration (M), TGI ([9]; average over impacted cell lines): 4.57e-06 M
- lethality in select melanoma cell lines ([10]; one-dose studies): > 90%
- cell lines with some level of lethality ([10]; one-dose, of the 9 melanoma): 8
- Total Impacted Cell Lines (n), LC50, Melanoma [11]: 3
- Percent of Cell Lines Impacted (%), LC50, Melanoma ([11]; five-dose): 38%
- Total Impacted Cell Lines (n), LC50, CNS [12]: 1
- Percent of Cell Lines Impacted (%), LC50, CNS ([12]; five-dose): 20%
- CC50 [13]: 1.17e-05 M
- percent of NCI cell lines with some level of lethality ([14]; 58 cell lines tested): 55%
- NCI cell lines with some level of lethality ([14]; of 58 cell lines tested): 32
- Total Impacted Cell Lines (n), LC50, Colon [15]: 2
- Percent of Cell Lines Impacted (%), LC50, Colon ([15]; five-dose): 29%
- CC50 [16]: 1.47e-06 M
- cell lines with some level of lethality [17]: 4
- GI50 ([18]; read-out: Average Concentration (M), GI50): 3.83e-08 M
- CC50 ([18]; read-out: Average Concentration (M), LC50): 5.48e-06 M
- GI50 ([18]; read-out: GI50 concentrations (M), order of magnitude): 1e-08 M
- CC50 ([18]; read-out: LC50 concentrations, order of magnitude): 1e-06 M
- cell lines with some level of lethality [19]: 3
- cell lines with some level of lethality [20]: 4
